Tests used:
[1] = system: LB771-HNC (Head and Neck Carcinoma); assay: Bliss excess, mean over the matrix (fraction); higher = more synergy
Method in brief: (§1)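 Bliss excess equals the observed combination effect minus the expected value EA + EB − EA·EB, where EA and EB are the effects of each agent alone. Combination Emax is the second-highest inhibition within the matrix. Inhibition was scaled from CellTiter-Glo 2.0 luminescence, with 0 set by vehicle wells and 1 by blank wells, after 72 hours of two-drug dosing of cells plated in 1536-well plates.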

[2] = system: UMC-11 (Other Solid Carcinomas); assay: as above
Method in brief: as §1

[3] = system: 8305C (Thyroid Gland Carcinoma); assay: as above
Method in brief: as §1

[4] = system: CAL-51 (Breast Carcinoma); assay: as above
Method in brief: as §1

[5] = system: CAL-54 (Kidney Carcinoma); assay: as above
Method in brief: as §1

[6] = system: HDLM-2 (Hodgkin's Lymphoma); assay: as above
Method in brief: as §1

[7] = system: KARPAS-231 (B-Cell Non-Hodgkin's Lymphoma); assay: as above
Method in brief: as §1

[8] = system: MDA-MB-468 (Breast Carcinoma); assay: as above
Method in brief: as §1

[9] = system: SUP-T1 (T-Lymphoblastic Leukemia); assay: as above
Method in brief: as §1

[10] = system: CAPAN-1 (Pancreatic Carcinoma); assay: as above
Method in brief: as §1

COLO-829 (Melanoma) = assay: as above
Method in brief: as §1

[11] = system: RKO (Colorectal Carcinoma); assay: as above
Method in brief: as §1

[12] = system: RT-112 (Bladder Carcinoma); assay: as above
Method in brief: as §1

[13] = system: Hs-633T (Other Solid Carcinomas); assay: as above
Method in brief: as §1

[14] = system: KYSE-410 (Esophageal Squamous Cell Carcinoma); assay: as above
Method in brief: as §1

[15] = system: LU-139 (Small Cell Lung Carcinoma); assay: as above
Method in brief: as §1

[16] = system: SUP-T1 (T-Lymphoblastic Leukemia); assay: combination Emax (second highest fraction inhibited in the dose matrix, 72 h); higher = more inhibition; extreme values may be limits of the assay
Method in brief: as §1

[17] = system: SK-OV-3 (Ovarian Carcinoma); assay: as above
Method in brief: as §1

[18] = system: RT-112 (Bladder Carcinoma); assay: as above
Method in brief: as §1

[19] = system: LoVo (Colorectal Carcinoma); assay: as above
Method in brief: as §1

| SMILES | Bliss excess [1] | Bliss excess [2] | Bliss excess [3] | Bliss excess [4] | Bliss excess [5] | Bliss excess [6] | Bliss excess [7] | Bliss excess [8] | Bliss excess [9] | Bliss excess [10] | Bliss excess (COLO-829 (Melanoma)) | Bliss excess [11] | Bliss excess [12] | Bliss excess [13] | Bliss excess [14] | Bliss excess [15] | combination Emax [16] | combination Emax [17] | combination Emax [18] | combination Emax [19] |
| --- | --- | --- | --- | --- | --- | --- | --- | --- | --- | --- | --- | --- | --- | --- | --- | --- | --- | --- | --- | --- |
| CC(=O)c1c(C)c2cnc(Nc3ccc(N4CCNCC4)cn3)nc2n(C2CCCC2)c1=O [Palbociclib] + CC1(C)CCC(CN2CCN(c3ccc(C(=O)NS(=O)(=O)c4ccc(NCC5CCOCC5)c([N+](=O)[O-])c4)c(Oc4cnc5[nH]ccc5c4)c3)CC2)=C(c2ccc(Cl)cc2)C1 [Venetoclax] (first compound max 10 µM, 7x7, partner max 1 µM) | -0.0429 | 0.0737 | -0.0306 | 0.0055 | -0.008 | 0.0073 | -0.103 | -0.0241 | -0.0942 | -0.019 | 0.0199 | -0.0498 | 0 | -0.0251 | -0.0511 | 0.0462 | 0.618 | 0.144 | 0.279 | 0.484 |
| CCN(CCO)CCCOc1ccc2c(Nc3cc(CC(=O)Nc4cccc(F)c4)[nH]n3)ncnc2c1 [AZD2811] + C[C@@H]1COCCN1C2=NC(=NC(=C2)C3(CC3)[S@](=N)(=O)C)C4=C5C=CNC5=NC=C4 [AZD6738] (first compound max 1 µM, 7x7, partner max 10 µM) | -0.0492 | -0.0488 | -0.0872 | 0.0075 | -0.0383 | -0.0357 | 0.0064 | -0.0977 | -0.0291 | -0.0939 | -0.0217 | -0.0152 | -0.0581 | -0.0197 | -0.0514 | -0.108 | 0.777 | 0.547 | 0.824 | 0.83 |
| COc1cccc(OCCCN)c1-c1cc(Nc2cnc(C#N)cn2)n[nH]1 [Prexasertib] + CN(C)CCCOc1ccc(-c2ccc3ncc4c(c3c2)n(C2CCOCC2)c(=O)n4C)cn1 [AZD0156] (first compound max 1 µM, 7x7, partner max 1 µM) | 0.0582 | -0.0236 | -0.0926 | 0.0233 | 0.0611 | -0.0727 | 0.0423 | -0.057 | -0.0707 | -0.0747 | 0.0127 | -0.014 | 0.0134 | -0.0151 | -0.03 | -0.0244 | 0.821 | 0.853 | 0.975 | 0.896 |
| C[C@@H]1COCCN1c1cc(C2([S@](C)(=N)=O)CC2)nc(-c2ccnc3[nH]ccc23)n1 [AZD6738] + O=C(c1cc(Cc2n[nH]c(=O)c3ccccc23)ccc1F)N1CCN(C(=O)C2CC2)CC1 [Olaparib] (first compound max 10 µM, 7x7, partner max 10 µM) | 0.0337 | 0.0266 | -0.0594 | 0.0407 | 0.045 | -0.0437 | -0.0708 | -0.0227 | -0.0289 | -0.0125 | -0.0067 | 0.0101 | -0.0643 | 0.0221 | -0.0219 | 0.0115 | 0.767 | 0.6 | 0.614 | 0.772 |
| CC1(C)CCC(CN2CCN(c3ccc(C(=O)NS(=O)(=O)c4ccc(NCC5CCOCC5)c([N+](=O)[O-])c4)c(Oc4cnc5[nH]ccc5c4)c3)CC2)=C(c2ccc(Cl)cc2)C1 [Venetoclax] + Cc1cc2ncnn2cc1Nc1ncc2c(n1)n(C1CCOCC1)c(=O)n2C [AZD7648] (first compound max 1 µM, 7x7, partner max 10 µM) | -0.006 | -0.0465 | -0.0293 | -0.0323 | -0.0295 | 0.0551 | -0.124 | -0.0299 | -0.0109 | -0.0196 | -0.0367 | -0.0396 | 0.0066 | -0.0154 | -0.0471 | -0.0013 | 0.602 | 0.353 | 0.257 | 0.443 |
| CN(CCO)CC[C@H](CSc1ccccc1)Nc1ccc(S(=O)(=O)NC(=O)c2ccc(N3CCC([C@@H](O)c4ccccc4-c4ccc(Cl)cc4)CC3)cc2)cc1S(=O)(=O)C(F)(F)F [AZD4320] + C[C@@H]1COCCN1C2=NC(=NC(=C2)C3(CC3)[S@](=N)(=O)C)C4=C5C=CNC5=NC=C4 [AZD6738] (first compound max 1 µM, 7x7, partner max 10 µM) | 0.0047 | -0.028 | -0.004 | -0.0316 | -0.0435 | -0.0171 | -0.0331 | 0.0161 | -0.0356 | 0.0034 | -0.0409 | -0.0309 | 0.0135 | -0.0092 | -0.0723 | -0.0613 | 0.858 | 0.66 | 0.863 | 0.838 |
| CN(CCO)CC[C@H](CSc1ccccc1)Nc1ccc(S(=O)(=O)NC(=O)c2ccc(N3CCC([C@@H](O)c4ccccc4-c4ccc(Cl)cc4)CC3)cc2)cc1S(=O)(=O)C(F)(F)F [AZD4320] + CN(C)CCCOc1ccc(-c2ccc3ncc4c(c3c2)n(C2CCOCC2)c(=O)n4C)cn1 [AZD0156] (first compound max 1 µM, 7x7, partner max 1 µM) | -0.0454 | -0.0015 | -0.0489 | -0.034 | -0.0224 | -0.0667 | 0.0325 | -0.127 | -0.0333 | -0.0654 | -0.0481 | -0.0253 | -0.0274 | -0.014 | -0.0482 | -0.0164 | 0.385 | 0.346 | 0.188 | 0.287 |
| CCN(CCO)CCCOc1ccc2c(Nc3cc(CC(=O)Nc4cccc(F)c4)[nH]n3)ncnc2c1 [AZD2811] + C=CCn1c(=O)c2cnc(Nc3ccc(N4CCN(C)CC4)cc3)nc2n1-c1cccc(C(C)(C)O)n1 [AZD1775] (first compound max 1 µM, partner max 1 µM) | -0.0295 | 0.0014 | -0.0355 | 0.0511 | -0.032 | 0.0252 | 0.0395 | 0.0205 | 0.0302 | -0.0733 | 0.0009 | -0.0625 | 0.0233 | -0.008 | -0.0179 | -0.0426 | 0.839 | 0.434 | 0.531 | 0.835 |
| COc1cccc(OCCCN)c1-c1cc(Nc2cnc(C#N)cn2)n[nH]1 [Prexasertib] + C=CCn1c(=O)c2cnc(Nc3ccc(N4CCN(C)CC4)cc3)nc2n1-c1cccc(C(C)(C)O)n1 [AZD1775] (first compound max 1 µM, partner max 1 µM) | 0.0424 | 0.0712 | 0.0491 | 0.101 | -0.024 | -0.0404 | 0.0482 | 0.0399 | -0.0504 | -0.0069 | -0.0067 | 0.0521 | 0.119 | 0.0796 | 0.0066 | 0.0089 | 0.848 | 0.875 | 1 | 0.894 |
| CN(CCO)CC[C@H](CSc1ccccc1)Nc1ccc(S(=O)(=O)NC(=O)c2ccc(N3CCC([C@@H](O)c4ccccc4-c4ccc(Cl)cc4)CC3)cc2)cc1S(=O)(=O)C(F)(F)F [AZD4320] + C1CN(CCC1(C(=O)N[C@@H](CCO)C2=CC=C(C=C2)Cl)N)C3=NC=NC4=C3C=CN4 [Capivasertib] (first compound max 1 µM, 7x7, partner max 3 µM) | -0.0148 | -0.0908 | -0.0663 | -0.0089 | -0.0694 | -0.0284 | 0.0407 | -0.0528 | -0.0639 | -0.0405 | -0.0988 | -0.0191 | -0.039 | -0.0193 | -0.0686 | -0.0328 | 0.505 | 0.369 | 0.147 | 0.633 |
| COc1cccc(OCCCN)c1-c1cc(Nc2cnc(C#N)cn2)n[nH]1 [Prexasertib] + CCc1c2c(nc3ccc(O)cc13)-c1cc3c(c(=O)n1C2)COC(=O)[C@]3(O)CC [SN-38] (first compound max 1 µM, 7x7, partner max 0.3 µM) | 0 | 0.0774 | -0.014 | -0.0495 | -0.115 | -0.0701 | -0.0111 | -0.0015 | -0.152 | -0.0624 | 0.0036 | -0.0686 | 0.104 | -0.0609 | -0.0192 | -0.0118 | 0.819 | 0.853 | 1 | 0.847 |
| CC1(C)CCC(CN2CCN(c3ccc(C(=O)NS(=O)(=O)c4ccc(NCC5CCOCC5)c([N+](=O)[O-])c4)c(Oc4cnc5[nH]ccc5c4)c3)CC2)=C(c2ccc(Cl)cc2)C1 [Venetoclax] + C[C@@H]1COCCN1C2=NC(=NC(=C2)C3(CC3)[S@](=N)(=O)C)C4=C5C=CNC5=NC=C4 [AZD6738] (first compound max 1 µM, 7x7, partner max 10 µM) | -0.014 | -0.0331 | -0.0471 | 0.005 | -0.0737 | 0.0068 | -0.18 | -0.028 | -0.0098 | -0.0674 | 0.0059 | -0.0796 | 0.0228 | -0.0455 | -0.0473 | -0.0111 | 0.821 | 0.573 | 0.842 | 0.767 |
| Cc1c2c(nn1C)CSCc1cc(n(C)n1)CSc1cc(c3ccccc3c1)OCCCc1c(C(=O)O)n(C)c3c-2c(Cl)ccc13 [AZD5991] + CN(C)CCCOc1ccc(-c2ccc3ncc4c(c3c2)n(C2CCOCC2)c(=O)n4C)cn1 [AZD0156] (first compound max 1 µM, 7x7, partner max 1 µM) | 0.0096 | 0.0551 | -0.0178 | 0.0198 | -0.0036 | 0.0332 | 0.041 | -0.0544 | -0.0007 | -0.0229 | -0.0492 | 0.0041 | -0.0217 | 0.0239 | -0.028 | -0.0236 | 0.371 | 0.342 | 0.876 | 0.496 |

— the supplement of paper PMC11061612
